Measurements taken from US20250082633A1, “COMPOUNDS AND METHODS FOR MODULATING SPLICING” (REMIX THERAPEUTICS INC., priority 2021, published 2025).
Where two headings read alike, the source gives them in different places.

Experiments:
Assay type in all cases: cell-based
K562 cells = experiment: Cell Titer Glo 2.0 cell viability assay; conditions: Homo sapiens, 500 cells/well, 72 hours
Protocol: Compounds described herein were screened for toxicity in K562 (human chronic myelogenous leukemia) and SH-SY5Y (human neuroblastoma) cells using a Cell Titer Glo 2.0 assay. • Promega CellTiter-Glo® 2.0 Cell Viability Assay (cat #G9241) • Corning 384-well TC-treated microplates (cat #3570) Cells were plated at 500 cells/well (K562 cells) in 45 μL of IMDM supplemented with 10% FBS in a 384-well opaque plate. Wells containing only medium were used as a blank control. Test compounds (e.g., compounds of Formula (I), (II), or (III)) were first serially diluted in DMSO then diluted 1:100 with IMDM+10% FBS. The final concentration of DMSO was 0.1% in each well. The cells were incubated for 72 hours at 37° C. and 5% CO2 before assaying with Cell Titer Glo 2.0 reagent.

SMN2 mRNA = experiment: RT-qPCR splicing assay, gene panel, SMN2 canonical junction (CJ) mRNA; conditions: Homo sapiens; decrease in CJ mRNA levels; larger panel of genes; Table 3; read-out: SMN2 CJ IC50
Protocol: (§1) Compounds described herein were used to modulate RNA transcript abundance in cells. The expression of a target mRNA was measured by detecting the formation of an exon-exon junction in the canonical transcript (CJ). A compound mediated exon-inclusion event was detected by observing an increase in formation of a new junction with an alternative exon (AJ). Real-time qPCR assays were used to detect these splicing switches and interrogate the potency of various compounds towards different target genes. A high-throughput real time quantitative PCR (RT-qPCR) assay was developed to measure these two isoforms of the mRNA (CJ and AJ) for exemplary genes, such as HTT, SMN2, and MYB, together with a control housekeeping gene, GAPDH or GUSB or PPIA, used for normalization. Briefly, the A673 or K562 cell line was treated with various compounds described herein (e.g., compounds of Formula (I)). After treatment, the levels of the HTT, MYB, or SMN2 mRNA targets were determined from each sample of cell lysate by cDNA synthesis followed by qPCR.
(§2) The A673 cell line was cultured in DMEM with 10% FBS. Cells were diluted with full growth media and plated in a 96-well plate (15,000 cells in 100 ul media per well). The plate was incubated at 37° C. with 5% CO2 for 24 hours to allow cells to adhere. An 11-point 3-fold serial dilution of the compounds was made in DMSO then diluted in media in an intermediate plate. Compounds were transferred from the intermediate plate to the cell plate with the top dose at a final concentration of 10 uM in the well. Final DMSO concentration was kept at or below 0.25%. The cell plate was returned to the incubator at 37° C. with 5% CO2 for an additional 24 hours.
(§3) The K562 cell line was cultured in IMDM with 10% FBS. For K562, cells were diluted with full growth media and plated in either a 96-well plate (50,000 cells in 50 uL media per well) or a 384-well plate (8,000-40,000 cells in 45 uL media per well). An 11-point 3-fold serial dilution of the compounds were made in DMSO then diluted in media in an intermediate plate. Compound was transferred from the intermediate plate to the cell plate with the top dose at a final concentration of 10 uM in the well. Final DMSO concentration was kept at or below 0.25%. Final volume was 100 uL for 96-well plate and 50 uL for 384-well plate. The cell plate was then placed in an incubator at 37° C. with 5% CO2 for 24 hours.
(§4) The cells were then gently washed with 50 uL-100 uL cold PBS before proceeding to addition of lysis buffer. 30 uL-50 μL of room temperature lysis buffer with DNAse I (and optionally RNAsin) was added to each well. Cells were shaken/mixed thoroughly at room temperature for 5-10 minutes for lysis to take place and then 3 uL-5 μL of room temperature stop solution was added and wells were shaken/mixed again. After 2-5 minutes, the cell lysate plate was transferred to ice for RT-qPCR reaction setup. The lysates could also be frozen at −80° C. for later use.
(§5) In some cases, a direct lysis buffer was used. An appropriate volume of 3× lysis buffer (10 mM Tris, 150 mM NaCl, 1.5%-2.5% Igepal and 0.1-1 U/uL RNAsin, pH 7.4) was directly added to either K562 or A673 cells in media and mixed by pipetting 3 times. The plates were then incubated at room temperature with shaking/rocking for 20-50 minutes to allow for lysis to take place. After this time, the cell lysate plate was transferred to ice to set up for the RT-qPCR reactions. The lysates could also be frozen at −80° C. for later use.
(§6) To set up 10 uL RT-qPCR reactions, cell lysates were transferred to 384-well qPCR plates containing the master mix according to the table below. The plates were sealed, gently vortexed, and spun down before the run. The volumes were adjusted accordingly in some instances where the reaction was carried in 20 μL. The table below summarizes the components of the RT-qPCR reactions:
(§7) The RT-qPCR reaction was performed using a QuantStudio (ThermoFisher) under the following fast cycling conditions. […]

Target C = experiment: RT-qPCR splicing assay, gene panel, Target C canonical junction (CJ) mRNA; conditions: Homo sapiens; decrease in CJ mRNA levels; larger panel of genes; Table 3; read-out: Target C CJ IC50
Protocol: as §1, §2, §3, §4, §5, §6, §7

MYB mRNA = experiment: RT-qPCR splicing assay, MYB canonical (CJ) and alternative (AJ) junction mRNA; conditions: Homo sapiens; for IC50: read-out: MYB CJ IC50; for AC50: increase in alternative junction mRNA, read-out: MYB AJ AC50
Protocol: as §1
(§8) • Cells-to-CT 1-step kit: ThermoFisher A25602, Cells-to-CT lysis reagent: ThermoFisher 4391851C, TaqMan™ Fast Virus 1-Step Master Mix: ThermoFisher 4444436 • GAPDH: VIC-PL, ThermoFisher 4326317E (Assay: Hs99999905_m1)—used for K562/suspension cell lines • GUSB: VIC-PL, ThermoFisher 4326320E (Assay: Hs99999908_m1)—used for K562/suspension cell lines • PPIA: VIC-PL, ThermoFisher 4326316E (Assay: Hs99999904_m1)—used for A673/adherent cell lines
as §2, §3, §4
as §5, with “use. […]” for “use.”

HTT mRNA = experiment: RT-qPCR splicing assay, HTT canonical (CJ) and alternative (AJ) junction mRNA; conditions: Homo sapiens; for IC50: read-out: HTT CJ IC50; for AC50: increase in alternative junction mRNA, read-out: HTT AJ AC50
Protocol: as §1, §8, §2, §3, §4
as §5, with “use. […]” for “use.”

[1] = decrease in CJ mRNA levels, larger panel of genes, Table 3
[2] = decrease in canonical junction mRNA, A673 or K562 cells, 24 hours treatment, Table 2
[3] = A673 or K562 cells, 24 hours treatment, Table 2

Cc1cn2nc(-c3cc(F)c4nn([C@@H]5CCN(C)C[C@H]5F)cc4c3)cc(C)c2n1 [Compound 197, 6-(7-fluoro-2-((3R,4R)-3-fluoro-1-methylpiperidin-4-yl)-2H-indazol-5-yl)-2,8-dimethylimidazo[1,2-b]pyridazine]
GI50 (K562 cells): 1000 to 10000 nM | IC50 (SMN2 mRNA): 100 to 1000 nM | IC50 (Target C): 1000 to 10000 nM | IC50 (MYB mRNA; [1]): 1000 to 10000 nM | IC50 (MYB mRNA; [2]): 1000 to 10000 nM | AC50 (MYB mRNA; [3]): 1000 to 10000 nM | IC50 (HTT mRNA; [1]): 100 to 1000 nM | IC50 (HTT mRNA; [2]): 100 to 1000 nM | AC50 (HTT mRNA; [3]): 100 to 1000 nM

CCN1CCC(n2cc3cc(-c4cc(C)c5nc(C)cn5n4)cc(F)c3n2)CC12CCC2 (centres unmarked) [Compound 198, 6-[2-(5-ethyl-5-azaspiro[3.5]nonan-8-yl)-7-fluoro-indazol-5-yl]-2,8-dimethyl-imidazo[1,2-b]pyridazine]
GI50 (K562 cells): 100 to 1000 nM | IC50 (SMN2 mRNA): < 100 nM | IC50 (Target C): < 100 nM | IC50 (MYB mRNA; [1]): 100 to 1000 nM | IC50 (MYB mRNA; [2]): 100 to 1000 nM | AC50 (MYB mRNA; [3]): 100 to 1000 nM | IC50 (HTT mRNA; [1]): < 100 nM | IC50 (HTT mRNA; [2]): < 100 nM | AC50 (HTT mRNA; [3]): < 100 nM

Cc1cn2nc(-c3ccc4nn(C5CCNC6(CC6)C5)cc4n3)cc(C)c2n1 (centres unmarked) [Compound 201, 6-[2-(4-azaspiro[2.5]octan-7-yl)pyrazolo[4,3-b]pyridine-5-yl]-2,8-dimethyl-imidazo[1,2-b]pyridazine]
GI50 (K562 cells): 1000 to 10000 nM | IC50 (SMN2 mRNA): 100 to 1000 nM | IC50 (Target C): 1000 to 10000 nM | IC50 (MYB mRNA; [1]): 1000 to 10000 nM | IC50 (MYB mRNA; [2]): 1000 to 10000 nM | AC50 (MYB mRNA; [3]): 1000 to 10000 nM | IC50 (HTT mRNA; [1]): 100 to 1000 nM | IC50 (HTT mRNA; [2]): 100 to 1000 nM | AC50 (HTT mRNA; [3]): 1000 to 10000 nM

Cc1cn2nc(-c3cc(F)c4nn(C5CCN(C(C)(C)C)CC5)cc4c3)cc(C)c2n1 [Compound 207, 2-(1-tert-butylpiperidin-4-yl)-5-{2,8-dimethylimidazo[1,2-b]pyridazin-6-yl}-7-fluoroindazole]
IC50 (SMN2 mRNA): < 100 nM | IC50 (Target C): 1000 to 10000 nM | IC50 (MYB mRNA; [1]): 100 to 1000 nM | IC50 (MYB mRNA; [2]): 100 to 1000 nM | AC50 (MYB mRNA; [3]): 100 to 1000 nM | IC50 (HTT mRNA; [1]): 100 to 1000 nM | IC50 (HTT mRNA; [2]): 100 to 1000 nM | AC50 (HTT mRNA; [3]): 100 to 1000 nM

Cc1cn2nc(-c3cc(C)c4nn(C5CCNC6(CC6)C5)cc4n3)cc(C)c2n1 (centres unmarked) [Compound 208, 2-(4-azaspiro[2.5]octan-7-yl)-5-(2,8-dimethylimidazo[1,2-b]pyridazin-6-yl)-7-methyl-pyrazolo[4,3-b]pyridine]
IC50 (SMN2 mRNA): 1000 to 10000 nM | IC50 (Target C): > 10000 nM | IC50 (MYB mRNA; [1]): > 10000 nM | IC50 (MYB mRNA; [2]): > 10000 nM | AC50 (MYB mRNA; [3]): > 10000 nM | IC50 (HTT mRNA; [1]): > 10000 nM | IC50 (HTT mRNA; [2]): > 10000 nM | AC50 (HTT mRNA; [3]): > 10000 nM

Cc1cn2nc(-c3nc4cn(C5CCNCC5)nc4c(=O)[nH]3)cc(C)c2n1 [Compound 211, 5-(2,8-dimethylimidazo[1,2-b]pyridazin-6-yl)-2-(4-piperidyl)-6H-pyrazolo[4,3-d]pyrimidin-7-one]
IC50 (SMN2 mRNA): < 100 nM | IC50 (MYB mRNA; [1]): 100 to 1000 nM | IC50 (MYB mRNA; [2]): 100 to 1000 nM | AC50 (MYB mRNA; [3]): 100 to 1000 nM | IC50 (HTT mRNA; [1]): < 100 nM | IC50 (HTT mRNA; [2]): < 100 nM | AC50 (HTT mRNA; [3]): 100 to 1000 nM
